How the values were obtained:
HCV replicon genotype 1b = assay: microbe, parasite or virus in culture; format: cell-based; details: genotype 1b replicon cells, incubated 96 hours, NS3/4A ELISA readout
HCV replicon genotype 1a = assay: microbe, parasite or virus in culture; format: cell-based; details: genotype 1a replicon cells, incubated 96 hours, NS3/4A ELISA readout

## CN(c1cc2oc(-c3ccc(F)cc3)c(C(=O)NC3CC3)c2cc1-c1ccc2c(n1)-c1cc3c(F)cccc3n1CO2)S(C)(=O)=O [Compound 157]
HCV replicon genotype 1b; Hepatitis C virus, 96 h
  IC50: 11 nM
HCV replicon genotype 1a; Hepatitis C virus, 96 h
  IC50: 7.6 nM

## CNC(=O)c1c(-c2ccc(F)cc2)oc2cc(N(C)S(C)(=O)=O)c(-c3ccc4c(n3)-c3cc5c(CN(C)C)cccc5n3CO4)cc12 [Compound 70]
HCV replicon genotype 1b; Hepatitis C virus, 96 h
  IC50: 18 nM
HCV replicon genotype 1a; Hepatitis C virus, 96 h
  IC50: 71 nM

## CNC(=O)c1c(-c2ccc(F)cc2)oc2cc(N(C)S(C)(=O)=O)c(-c3ccc4oc(=O)n5c6ccccc6cc5c4c3)cc12 [Compound 53, 2-(4-fluorophenyl)-N-methyl-6-(N-methylmethylsulfonamido)-5-(6-oxo-6H-benzo[5,6][1,3]oxazino[3,4-a]indol-2-yl)benzofuran-3-carboxamide]
HCV replicon genotype 1b; Hepatitis C virus, 96 h
  IC50: 7.9 nM
HCV replicon genotype 1a; Hepatitis C virus, 96 h
  IC50: 8 nM

## CNC(=O)c1c(-c2ccc(F)cc2)oc2cc(N(C)S(C)(=O)=O)c(-c3cnc4c(c3)-c3cc5c(F)cccc5n3CO4)cc12 [Compound 34]
HCV replicon genotype 1b; Hepatitis C virus, 96 h
  IC50: 3.3 nM
HCV replicon genotype 1a; Hepatitis C virus, 96 h
  IC50: 1.4 nM

## CNC(=O)c1c(-c2ccc(F)cc2)oc2cc(-c3ccnn3C)c(-c3ccc4c(n3)-c3cc5c(F)cccc5n3CO4)cc12 [Compound 165, 5-(11-fluoro-6H-pyrido[2′,3′:5,6][1,3]oxazino[3,4-a]indol-2-yl)-2-(4-fluorophenyl)-N-methyl-6-(1-methyl-1H-pyrazol-5-yl)benzofuran-3-carboxamide]
HCV replicon genotype 1b; Hepatitis C virus, 96 h
  IC50: 9.7 nM
HCV replicon genotype 1a; Hepatitis C virus, 96 h
  IC50: 27 nM

## CN(c1cc2oc(-c3ccc(F)cc3)c(C(N)=O)c2cc1-c1ccc2c(n1)-c1cc3c(F)cccc3n1CO2)S(C)(=O)=O [Compound 154]
HCV replicon genotype 1b; Hepatitis C virus, 96 h
  IC50: 2.2 nM
HCV replicon genotype 1a; Hepatitis C virus, 96 h
  IC50: 2.7 nM

## CNC(=O)c1c(-c2ccc(F)cc2)oc2cc(N(C)S(C)(=O)=O)c(-c3ccc4c(n3)-c3cc5ncccc5n3CO4)cc12 [Compound 44]
HCV replicon genotype 1b; Hepatitis C virus, 96 h
  IC50: 2.4 nM
HCV replicon genotype 1a; Hepatitis C virus, 96 h
  IC50: 2.8 nM

## CNC(=O)c1c(-c2ccc(F)cc2)oc2cc(N(C)S(C)(=O)=O)c(-c3cc4c(cn3)OCn3c-4cc4cccnc43)cc12 [Compound 50]
HCV replicon genotype 1b; Hepatitis C virus, 96 h
  IC50: 4.6 nM
HCV replicon genotype 1a; Hepatitis C virus, 96 h
  IC50: 15 nM

## CNC(=O)c1c(-c2ccc(F)cc2)oc2cc(N(C)S(C)(=O)=O)c(-c3ccc4c(n3)-c3c(F)c5ccccc5n3CO4)cc12 [Compound 58, 5-(12-fluoro-6H-pyrido[2′,3′:5,6][1,3]oxazino[3,4-a]indol-2-yl)-2-(4-fluorophenyl)-N-methyl-6-(N-methylmethylsulfonamido)benzofuran-3-carboxamide]
HCV replicon genotype 1b; Hepatitis C virus, 96 h
  IC50: 8.7 nM
HCV replicon genotype 1a; Hepatitis C virus, 96 h
  IC50: 13 nM

## CNC(=O)c1c(-c2ccc(F)cc2)oc2cc(N(CC(F)F)S(C)(=O)=O)c(-c3ncc4c(n3)-c3cc5ccccc5n3CO4)cc12 [Compound 198]
HCV replicon genotype 1b; Hepatitis C virus, 96 h
  IC50: 5.6 nM
HCV replicon genotype 1a; Hepatitis C virus, 96 h
  IC50: 2 nM

## CNC(=O)c1c(-c2ccc(F)cc2F)oc2cc(N(C)S(C)(=O)=O)c(-c3ccc4c(n3)-c3cc5c(F)cccc5n3CO4)cc12 [Compound 147, 2-(2,4-difluorophenyl)-5-(11-fluoro-6H-pyrido[2′,3′:5,6][1,3]oxazino[3,4-a]indol-2-yl)-N-methyl-6-(N-methylmethylsulfonamido)benzofuran-3-carboxamide]
HCV replicon genotype 1b; Hepatitis C virus, 96 h
  IC50: 6.9 nM
HCV replicon genotype 1a; Hepatitis C virus, 96 h
  IC50: 9 nM

## CNC(=O)c1c(-c2ccc(F)cc2)oc2cc(N(C)S(C)(=O)=O)c(-c3ccc4c(c3)-c3[nH]c5ccccc5c3C(c3cccnc3)O4)cc12 (stereo not shown) [Compound 62]
HCV replicon genotype 1b; Hepatitis C virus, 96 h
  IC50: 3.4 nM
HCV replicon genotype 1a; Hepatitis C virus, 96 h
  IC50: 12 nM

## CNC(=O)c1c(-c2ccc(F)cc2)oc2cc(N(C)S(C)(=O)=O)c(-c3ccc4c(n3)-c3nn5ccccc5c3CO4)cc12 [Compound 146, 2-(4-fluorophenyl)-N-methyl-5-(1-aza-6H-chromeno[4′,3′:3,4]pyrazolo[1,5-a]pyridin-2-yl)-6-(N-methylmethylsulfonamido)benzofuran-3-carboxamide]
HCV replicon genotype 1b; Hepatitis C virus, 96 h
  IC50: 37 nM
HCV replicon genotype 1a; Hepatitis C virus, 96 h
  IC50: 225 nM

## CNC(=O)c1c(-c2ccc(F)cc2)oc2cc(N(C)S(C)(=O)=O)c(-c3ccc4c(c3)-c3nc5ccc(F)cn5c3CO4)cc12 [Compound 143]
HCV replicon genotype 1b; Hepatitis C virus, 96 h
  IC50: 8 nM
HCV replicon genotype 1a; Hepatitis C virus, 96 h
  IC50: 15 nM

## CNC(=O)c1c(-c2ccc(F)cc2)oc2cc(N(C)S(C)(=O)=O)c(-c3ccc4c(n3)-c3cc5c(F)cccc5n3C(CNCCOC)O4)cc12 (stereo not shown) [Compound 120]
HCV replicon genotype 1b; Hepatitis C virus, 96 h
  IC50: 2.1 nM
HCV replicon genotype 1a; Hepatitis C virus, 96 h
  IC50: 4.3 nM

## CNC(=O)c1c(-c2ccc(F)cc2)oc2cc(N(C)S(C)(=O)=O)c(-c3nc4c(cc3C)OCn3c-4cc4c(F)cccc43)cc12 [Compound 32]
HCV replicon genotype 1b; Hepatitis C virus, 96 h
  IC50: 19 nM
HCV replicon genotype 1a; Hepatitis C virus, 96 h
  IC50: 5.7 nM

## CNC(=O)c1c(-c2ccc(F)cc2)oc2cc(N(C)S(C)(=O)=O)c(-c3ncc4c(n3)-c3cc5ccccc5n3C(C)O4)cc12 (stereo not shown) [Compound 9]
HCV replicon genotype 1b; Hepatitis C virus, 96 h
  IC50: 1.9 nM
HCV replicon genotype 1a; Hepatitis C virus, 96 h
  IC50: 1.1 nM

## CNC(=O)c1c(-c2ccc(F)cc2)oc2cc(N(C)S(C)(=O)=O)c(-c3ccc4c(c3)-c3cc5ccccc5n3CC(NCCN3CCOCC3)CO4)cc12 (stereo not shown) [Compound 83]
HCV replicon genotype 1b; Hepatitis C virus, 96 h
  IC50: 12 nM
HCV replicon genotype 1a; Hepatitis C virus, 96 h
  IC50: 15 nM

## CNC(=O)c1c(-c2ccc(F)cc2)oc2cc(N3CCNC3=O)c(-c3ccc4c(n3)-c3cc5c(F)cccc5n3CO4)cc12 [Compound 177, 5-(11-fluoro-6H-pyrido[2′,3′:5,6][1,3]oxazino[3,4-a]indol-2-yl)-2-(4-fluorophenyl)-N-methyl-6-(2-oxoimidazohdin-1-yl)benzofuran-3-carboxamide]
HCV replicon genotype 1b; Hepatitis C virus, 96 h
  IC50: 4 nM
HCV replicon genotype 1a; Hepatitis C virus, 96 h
  IC50: 4.6 nM

## CNC(=O)c1c(-c2ccc(F)cc2)oc2cc(N(CC(F)F)S(C)(=O)=O)c(-c3ncc4c(n3)-c3cc5c(F)cccc5n3CO4)cc12 [Compound 186]
HCV replicon genotype 1b; Hepatitis C virus, 96 h
  IC50: 7.6 nM
HCV replicon genotype 1a; Hepatitis C virus, 96 h
  IC50: 4.4 nM

## CNC(=O)c1c(-c2ccc(F)cc2)oc2cc(N(C)S(C)(=O)=O)c(-c3ccc4c(n3)-c3cc5c(F)cccc5n3C(C(=O)O)O4)cc12 (stereo not shown) [Compound 112]
HCV replicon genotype 1b; Hepatitis C virus, 96 h
  IC50: 23 nM
HCV replicon genotype 1a; Hepatitis C virus, 96 h
  IC50: 20 nM

## CNC(=O)c1c(-c2ccc(F)cc2)oc2cc(N(C)S(C)(=O)=O)c(-c3ccc4c(n3)-c3cc5c(CN)cccc5n3CO4)cc12 [Compound 68]
HCV replicon genotype 1b; Hepatitis C virus, 96 h
  IC50: 19 nM
HCV replicon genotype 1a; Hepatitis C virus, 96 h
  IC50: 60 nM

## COC(=O)C(=O)N(C)C(=O)c1c(-c2ccc(F)cc2)oc2cc(N(C)S(C)(=O)=O)c(-c3ccc4c(n3)-c3cc5c(F)cccc5n3CO4)cc12 [Compound 209, methyl 2-(5-(11-fluoro-6H-pyrido[2′,3′:5,6][1,3]oxazino[3,4-a]indol-2-yl)-2-(4-fluorophenyl)-N-methyl-6-(N-methylmethylsulfonamido)benzofuran-3-carboxamido)-2-oxoacetate]
HCV replicon genotype 1b; Hepatitis C virus, 96 h
  IC50: 2.6 nM
HCV replicon genotype 1a; Hepatitis C virus, 96 h
  IC50: 0.6 nM

## CNC(=O)c1c(-c2ccc(F)cc2)oc2cc(N(C)S(C)(=O)=O)c(-c3ccc4c(n3)-c3cc5c(F)c(F)ccc5n3CO4)cc12 [Compound 28]
HCV replicon genotype 1b; Hepatitis C virus, 96 h
  IC50: 4.5 nM
HCV replicon genotype 1a; Hepatitis C virus, 96 h
  IC50: 2.1 nM

## CNC(=O)c1c(-c2ccc(F)cc2)oc2cc(N(C)S(C)(=O)=O)c(-c3ccc4c(c3)-c3[nH]c5ccccc5c3C(C)(C)O4)cc12 [Compound 61, 5-(6,6-dimethyl-6,11-dihydrochromeno[4,3-b]indol-2-yl)-2-(4-fluorophenyl)-N-methyl-6-(N-methylmethylsulfonamido)benzofuran-3-carboxamide]
HCV replicon genotype 1b; Hepatitis C virus, 96 h
  IC50: 11 nM
HCV replicon genotype 1a; Hepatitis C virus, 96 h
  IC50: 6.5 nM

## CNC(=O)c1c(-c2ccc(F)cc2)oc2cc(N(C)S(C)(=O)=O)c(-c3ccc4c(n3)-c3cc5c(F)cccc5n3C(CN(C)C)O4)cc12 (stereo not shown) [Compound 122, 5-(6-((dimethylamino)methyl)-11-fluoro-6H-pyrido[2′,3′:5,6][1,3]oxazino[3,4-a]indol-2-yl)-2-(4-fluorophenyl)-N-methyl-6-(N-methylmethylsulfonamido)benzofuran-3-carboxamide]
HCV replicon genotype 1b
  IC50: 5.2 nM
HCV replicon genotype 1a
  IC50: 5.1 nM

Reference: US9265773B2, “Tetracyclic heterocycle compounds and methods of use thereof for the treatment of viral diseases” (priority 2011, dated 2016)
